“Also recorded” adds a separate entry of the source.
Tests used:
[1] = test system: hSTING WT pathway (THP1 Dual KI-hSTING-R232 cells, IRF3 luciferase reporter)
Protocol: 2 Luciferase assay utilizing monocytic leukemia (THP-1) cells. Cells (Invivogen THP1 Dual KI-hSTING-R232; wild type) were analyzed for activation of the hSTING WT pathway via an IRF3 luciferase reporter. Luminescence is reported in relative luminescence units (RLU).
A study was performed to determine that five hundred thousand cells/mL was the optimal cell density. An optimization study was performed to determine the maximum DMSO percentage so as not to impact the viability of the cells. […] The chosen concentration was 4 μM. The cells were tested with lipofectamine and compared to wells prepared without lipofectamine.

[2] = test system: THP1 STING knockout cells; test: STING knockout THP-1 luciferase assay; assay type: cell-based, human; settings: WT-THP1 vs THP1 STING knockout cells
Description: docking algorithm to properly calculate estimated free energies of binding for the LD-protein […]
Differential Scanning Fluorimetry – Thermal Shift Experiment […]
to the endogenous ligand, 2’,3’-cGAMP, 2) unbound and 3) bound to ligands chosen by the virtual screening process for their potential to stabilize the active form of the STING molecule by binding to it. A TSA measures a protein's melting temperature (Tm), at which the protein is 50% denatured. The assay quantifies protein denaturation by measuring the increase in fluorescence of a dye that binds to hydrophobic residues exposed by unfolding of the protein.
To determine clonixeril’s hydrolytic stability and evaluate its potential as an oral drug, an aqueous solution was concentrated for analysis at 20 µM. The sample was analyzed by HPLC using an […]
The UV spectra of these peaks were compared by diode array and found to be identical with maximum absorbance at 280nm and 343nm. […]
the minor first peak matched the molecular weight of clonixin (M+H)+ and the second major peak matched the molecular weight of clonixeril (M+H)+. […] Hydrolysis of clonixeril to clonixin was measured by HPLC over seven days using a 20 µM aqueous solution. […]
Figure S4. […] (D) Quantification of luciferase assay performed using WT-THP1 and THP1 STING knockout cells in the presence and absence of clonixeril and/or 2’,3’-cGAMP. […]

[3] = test system: IFN-β expression in HEK293 cells; test: HEK293 real-time qPCR for IFN-β
Protocol: IFN-β expression levels were measured using real-time qPCR.
HEK293 cells were seeded at 700,000 cells per 60 mm plate confluency and treated 36 h later.

inflammation in rats = test system: inflammation in rats; set-up: method as in not given; settings: 30–300 mg/kg, ref not given, cited from earlier work
[4] = test system: hSTING oligomerization in HEK293S cells; test: Clear native PAGE of hSTING oligomerization in HEK293S cells; assay type: cell-based, human; settings: CXL 1 h, then 100 nM diABZI3 2 h
Protocol: To determine whether the results we observed in the DLS experiments could be recapitulated in cellulo, where full-length hSTING is present, we used HEK293T cells transfected with WT hSTING (referred to herein as HEK293S cells) to perform hSTING clear native PAGE experiments. […] Thus, HEK293S cells were harvested following treatment with 100 nM diABZI3 for 2 h, following a 1 h treatment of varying concentrations of CXL.
Invitrogen NativePAGE Sample Prep Kit Catalog number: BN2008, Invitrogen NativePAGE Running Buffer Kit Catalog number: BN2007 and Invitrogen NativePAGE 4 to 16%, Bis-Tris, 1.0 mm, Mini Protein Gels, 10 wells, (Cat. # BN1002BOX). Cells were harvested and CXL was added at varying concentrations for 1 h and followed by 2 h of diABZI3 at 100 nM. To the mammalian cells harvested in 1 mL cell culture, add 0.2 mL lysis buffer containing 10 mM HEPES, pH 7.5,150 mM NaCl, 5% glycerol, protease inhibitor cocktail, and 0.025% digitonin. Cells were lysed by sonicating for two rounds of 15 s each while cooling the sample on ice. Centrifuge the lysate at 20,000g for 10 min at 4 °C. Aliquot the supernatant into microcentrifuge tubes. To prepare the sample for loading a total volume of 20 μL NativePAGE including Sample Buffer (4×) 5 μLSTING supernatant, 14.5 μL and Ponceau S-dye: 0.5 μL. 1X NativePAGE Anode Buffer: Add 30 mL of 20X NativePAGE Running Buffer to 570 mL of deionized water. […]

hSTING = hSTING (Homo sapiens, UniProt Q86WV6, H232R); test: Summary of interaction of CXL with hSTING in vitro and in cellulo; settings: read-out: EC50, first mode of interaction with hSTING

For `Cc1c(Cl)cccc1Nc1ncccc1C(=O)OCC(O)CO` (stereo not drawn) [CXL, clonixeril], the “Antagonism of hSTING pathway in luciferase reporter assay” value ([1]; compound 1 h, then 4 μM 2′,3′-cGAMP) was “inverse dose response; also recorded: antagonism of the hSTING^WT pathway”, the “Concentration of maximum inhibition” value ([1]; reviewer's summary of IRF3 reporter assay) was 100 aM and the “Pathway dependence of effect on pIRF3 production” value [2] was “affecting pIRF3 production only through the STING pathway”. The “Inhibition of IFN-b production” value ([3]; 1 fM, reviewer's reading of Figure 3D) was “about 75%”, the “Diminution of 2′,3′-cGAMP-induced expression of IFN-β” value ([3]; all CXL treatment groups 1 fM-1 nM, 1 h before 4 μM 2′,3′-cGAMP) was “more than 50%” and the Ulcerogenic effects (inflammation in rats) was “without producing significant ulcerogenic effects”. For the same compound, the Anti-inflammatory effect (inflammation in rats; oral) was “anti-inflammatory effects”, the “Effect on hSTING oligomerization” value [4] was “reduces hSTING oligomerization at concentrations down to attomolar levels” and the EC50 (hSTING) was greater than 1 nM.
